Measured values as given in patent US20060128792A1, “Deguelin as a chemopreventive agent for lung cancer” (priority 2002, published 2006).
Values joined by “and” are separate entries in the source; they are usually repeats but may differ in a detail not shown here. Equal values may be shown once.

Experiments:
Test in all cases: MTT assay, growth inhibition by deguelin or deguelin derivatives
Type in all cases: cell-based
Settings in all cases: 3 days
H322 = test system: H322
H460 = test system: H460
H1299 = test system: H1299
H596 = test system: H596
H358 = test system: H358
A549 = test system: A549

**Q.** Which “MTT assay reading, Average” value (H322; H322, 0.01 μM) does the source give for `C=C(C)[C@H]1Cc2c(ccc3c2O[C@@H]2COc4cc(OC)c(OC)cc4[C@@H]2C3=O)O1` [rotenone] here?
**A.** 0.4327

**Q.** And the “MTT assay reading, individual replicate” value (H322; H322, 0.01 μM)?
**A.** 0.477 and 0.569 and 0.498 and 0.266 and 0.304 and 0.489 and 0.426

**Q.** And the “MTT assay reading, Average” value (H322; H322, 0.1 μM)?
**A.** 0.3726

**Q.** And the “MTT assay reading, individual replicate” value (H322; H322, 0.1 μM)?
**A.** 0.414 and 0.357 and 0.41 and 0.408 and 0.319 and 0.361 and 0.339

**Q.** What about the “MTT assay reading, Average” value (H322; H322, 0.5 μM) of the same molecule?
**A.** 0.322

**Q.** What about the “MTT assay reading, individual replicate” value (H322; H322, 0.5 μM) of the same molecule?
**A.** 0.262 and 0.328 and 0.307 and 0.34 and 0.378 and 0.353 and 0.286

**Q.** What about the “MTT assay reading, Average” value (H322; H322, 1 μM) of the same molecule?
**A.** 0.2547

**Q.** What about the “MTT assay reading, individual replicate” value (H322; H322, 1 μM) of the same molecule?
**A.** 0.229 and 0.223 and 0.225 and 0.288 and 0.226 and 0.338 and 0.254

**Q.** What about the “% control” value (H460; H460, 0.01 μM) of the same molecule?
**A.** 0.14%

**Q.** What about the “MTT assay reading, Average” value (H460; H460, 0.01 μM) of the same molecule?
**A.** 0.2486

**Q.** What about the “MTT assay reading, individual replicate” value (H460; H460, 0.01 μM) of the same molecule?
**A.** 0.092 and 0.412 and 0.24 and 0.191 and 0.228 and 0.242 and 0.335

**Q.** And the “% control” value (H460; H460, 0.1 μM)?
**A.** 0.10%

**Q.** And the “MTT assay reading, Average” value (H460; H460, 0.1 μM)?
**A.** 0.1766

**Q.** What about the “MTT assay reading, individual replicate” value (H460; H460, 0.1 μM) of the same molecule?
**A.** 0.143 and 0.107 and 0.138 and 0.161 and 0.242 and 0.268 and 0.177

**Q.** What about the “% control” value (H460; H460, 0.5 μM) of the same molecule?
**A.** 0.09%

**Q.** And the “MTT assay reading, Average” value (H460; H460, 0.5 μM)?
**A.** 0.1499

**Q.** What about the “MTT assay reading, individual replicate” value (H460; H460, 0.5 μM) of the same molecule?
**A.** 0.185 and 0.159 and 0.143 and 0.1 and 0.104 and 0.117 and 0.241

**Q.** And the “% control” value (H460; H460, 1 μM)?
**A.** 0.10%

**Q.** What about the “MTT assay reading, Average” value (H460; H460, 1 μM) of the same molecule?
**A.** 0.1763

**Q.** What about the “MTT assay reading, individual replicate” value (H460; H460, 1 μM) of the same molecule?
**A.** 0.071 and 0.467 and 0.127 and 0.144 and 0.138 and 0.118 and 0.169

**Q.** And the “MTT assay reading, Average” value (H1299; H1299, 0.01 μM)?
**A.** 0.2794

**Q.** And the “MTT assay reading, individual replicate” value (H1299; H1299, 0.01 μM)?
**A.** 0.249 and 0.392 and 0.221 and 0.209 and 0.261 and 0.311 and 0.313

**Q.** And the “MTT assay reading, Average” value (H1299; H1299, 0.1 μM)?
**A.** 0.1907

**Q.** And the “MTT assay reading, individual replicate” value (H1299; H1299, 0.1 μM)?
**A.** 0.25 and 0.3 and 0.158 and 0.09 and 0.125 and 0.235 and 0.177

**Q.** What about the “MTT assay reading, Average” value (H1299; H1299, 0.5 μM) of the same molecule?
**A.** 0.2391

**Q.** What about the “MTT assay reading, individual replicate” value (H1299; H1299, 0.5 μM) of the same molecule?
**A.** 0.308 and 0.259 and 0.248 and 0.197 and 0.195 and 0.179 and 0.288

**Q.** What about the “MTT assay reading, Average” value (H1299; H1299, 1 μM) of the same molecule?
**A.** 0.2753

**Q.** And the “MTT assay reading, individual replicate” value (H1299; H1299, 1 μM)?
**A.** 0.226 and 0.193 and 0.23 and 0.175 and 0.76 and 0.148 and 0.195

**Q.** And the “MTT assay reading, Average” value (H596; H596, 0.01 μM)?
**A.** 0.4666

**Q.** And the “MTT assay reading, individual replicate” value (H596; H596, 0.01 μM)?
**A.** 0.393 and 0.433 and 0.462 and 0.499 and 0.497 (2×) and 0.485

**Q.** What about the “MTT assay reading, Average” value (H596; H596, 0.1 μM) of the same molecule?
**A.** 0.3784

**Q.** What about the “MTT assay reading, individual replicate” value (H596; H596, 0.1 μM) of the same molecule?
**A.** 0.271 and 0.369 and 0.513 and 0.582 and 0.413 and 0.285 and 0.216

**Q.** And the “MTT assay reading, Average” value (H596; H596, 0.5 μM)?
**A.** 0.2329

**Q.** And the “MTT assay reading, individual replicate” value (H596; H596, 0.5 μM)?
**A.** 0.189 and 0.362 and 0.261 and 0.296 and 0.156 and 0.203 and 0.163

**Q.** What about the “MTT assay reading, Average” value (H596; H596, 1 μM) of the same molecule?
**A.** 0.177

**Q.** What about the “MTT assay reading, individual replicate” value (H596; H596, 1 μM) of the same molecule?
**A.** 0.205 (2×) and 0.123 and 0.193 and 0.172 and 0.161 and 0.18

**Q.** What about the “MTT assay reading, Average” value (H358; H358, 0.01 μM) of the same molecule?
**A.** 0.3171

**Q.** What about the “MTT assay reading, individual replicate” value (H358; H358, 0.01 μM) of the same molecule?
**A.** 0.298 and 0.253 and 0.268 and 0.348 and 0.331 and 0.329 and 0.393

**Q.** And the “MTT assay reading, Average” value (H358; H358, 0.1 μM)?
**A.** 0.309

**Q.** And the “MTT assay reading, individual replicate” value (H358; H358, 0.1 μM)?
**A.** 0.257 and 0.27 and 0.281 and 0.311 and 0.338 and 0.371 and 0.335

**Q.** And the “MTT assay reading, Average” value (H358; H358, 0.5 μM)?
**A.** 0.2334

**Q.** What about the “MTT assay reading, individual replicate” value (H358; H358, 0.5 μM) of the same molecule?
**A.** 0.263 and 0.209 and 0.189 and 0.244 and 0.198 and 0.235 and 0.296

**Q.** And the “MTT assay reading, Average” value (H358; H358, 1 μM)?
**A.** 0.2736

**Q.** And the “MTT assay reading, individual replicate” value (H358; H358, 1 μM)?
**A.** 0.308 and 0.205 and 0.243 and 0.287 and 0.258 and 0.247 and 0.367

**Q.** And the “% control” value (A549; A549, 0.01 μM)?
**A.** 0.35%

**Q.** What about the “MTT assay reading, Average” value (A549; A549, 0.01 μM) of the same molecule?
**A.** 0.463

**Q.** What about the “MTT assay reading, individual replicate” value (A549; A549, 0.01 μM) of the same molecule?
**A.** 0.425 and 0.439 and 0.541 and 0.451 and 0.45 and 0.428 and 0.507

**Q.** What about the “% control” value (A549; A549, 0.1 μM) of the same molecule?
**A.** 0.27%

**Q.** What about the “MTT assay reading, Average” value (A549; A549, 0.1 μM) of the same molecule?
**A.** 0.3653

**Q.** What about the “MTT assay reading, individual replicate” value (A549; A549, 0.1 μM) of the same molecule?
**A.** 0.418 and 0.293 and 0.364 and 0.26 and 0.429 and 0.354 and 0.439

**Q.** And the “% control” value (A549; A549, 0.5 μM)?
**A.** 0.27%

**Q.** And the “MTT assay reading, Average” value (A549; A549, 0.5 μM)?
**A.** 0.3657

**Q.** What about the “MTT assay reading, individual replicate” value (A549; A549, 0.5 μM) of the same molecule?
**A.** 0.284 and 0.833 and 0.266 and 0.314 and 0.246 and 0.308 and 0.309

**Q.** And the “% control” value (A549; A549, 1 μM)?
**A.** 0.13%

**Q.** And the “MTT assay reading, Average” value (A549; A549, 1 μM)?
**A.** 0.1791

**Q.** And the “MTT assay reading, individual replicate” value (A549; A549, 1 μM)?
**A.** 0.188 and 0.171 and 0.176 and 0.213 and 0.173 and 0.141 and 0.192
